Consider 15 compounds from PubChem BioAssay (NCI).

Among the test systems are SF-295 CNS; K-562 leukemia; OVCAR-3 ovarian; NCI-H23 lung; SF-539 CNS; 786-0 renal; SN12C renal; HL-60(TB) leukemia; HCC-2998 colon; NCI-H460 lung.
Experiment in all cases: NCI-60 cell line screen, 48 h

Where “and” joins values, the source holds several entries; their conditions need not be identical. Identical values can stand only once.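 A five-concentration, 48-hour dose response in 96-well plates underlies each endpoint, interpolated linearly between surrounding concentrations. GI50 = concentration required for 50% inhibition of growth. Definition used: TGI = concentration required for complete inhibition of growth.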

As to `COC(=O)c1cc(C)[nH]c2c(C)cc3nc4ccccc4c3c12`, the GI50 in the experiment with SF-295 CNS is 3.41 µM; with K-562 leukemia, 4.34 µM; in the experiment on OVCAR-3 ovarian, 10.3 µM; in the experiment on NCI-H23 lung it was 7.54 µM; with SF-539 CNS it was 12.4 µM; in the experiment on 786-0 renal, 7.1 µM. Moreover, the GI50 is 11.7 µM in the experiment on SN12C renal, 7.34 µM in the experiment with HL-60(TB) leukemia, 8.99 µM with HCC-2998 colon and 4.25 µM with NCI-H460 lung. The TGI in the experiment on SF-295 CNS worked out at 14.1 µM; in the experiment on K-562 leukemia, 46.1 µM; in the experiment on OVCAR-3 ovarian it was 22.1 µM; with NCI-H23 lung, 26.4 µM; in the experiment on SF-539 CNS, 26.4 µM; in the experiment with 786-0 renal it was 21.4 µM. The TGI with SN12C renal stood at 30.8 µM; in the experiment on HL-60(TB) leukemia, 55.3 µM; with HCC-2998 colon, 23.9 µM; in the experiment on NCI-H460 lung, 22.5 µM.

Consider `O=C1CC2OCC=C3CN4CCC5(C(=O)O)C(N1)C2C3CC45` (stereo not given), for which the TGI in the experiment on SF-295 CNS, in the experiment with K-562 leukemia, with OVCAR-3 ovarian, with NCI-H23 lung, with SF-539 CNS and with 786-0 renal was over 100 µM throughout. Further, the TGI with SN12C renal, in the experiment on HL-60(TB) leukemia, in the experiment on HCC-2998 colon and in the experiment with NCI-H460 lung was over 100 µM in each case.

Regarding `COC(=O)Nc1nc2ccc(C(=O)c3cccs3)cc2[nH]1`, the GI50 with SF-295 CNS was 0.109 µM; with OVCAR-3 ovarian, 0.0192 µM and 0.0664 µM; in the experiment with NCI-H23 lung it was 0.277 µM; in the experiment on SF-539 CNS, 0.0259 µM and 0.21 µM; in the experiment on 786-0 renal, 0.261 µM; in the experiment with SN12C renal it was 0.729 µM. Besides, the GI50 in the experiment with HL-60(TB) leukemia is 0.0897 µM; in the experiment on HCC-2998 colon, 0.0574 µM and 0.197 µM; in the experiment with NCI-H460 lung it was 0.239 µM. Also, the TGI in the experiment with K-562 leukemia was 42.5 µM; with NCI-H23 lung, 0.602 µM; in the experiment with 786-0 renal it was 29.8 µM and > 100 µM; in the experiment with SN12C renal, 32.9 µM and > 100 µM; in the experiment on HL-60(TB) leukemia, 0.0753 µM and 0.415 µM; in the experiment with HCC-2998 colon it was 11.5 µM and > 100 µM.

With `CC(C)OP(=O)(OC(C)C)/C(C#N)=C/c1c[nH]c2ccccc12`, the TGI with SF-295 CNS, with K-562 leukemia, in the experiment on OVCAR-3 ovarian, in the experiment on NCI-H23 lung, in the experiment with SF-539 CNS and in the experiment on 786-0 renal was over 100 µM throughout. The TGI with SN12C renal, in the experiment on HL-60(TB) leukemia, in the experiment with HCC-2998 colon and in the experiment on NCI-H460 lung was over 100 µM throughout.

Take `CC(CC(=O)Nc1ccc(NC(=O)CC(C)N=NC(N)=O)cc1)N=NC(N)=O` (stereo not given): the TGI with SF-295 CNS, in the experiment with K-562 leukemia, in the experiment with OVCAR-3 ovarian, in the experiment on NCI-H23 lung, in the experiment with SF-539 CNS and with 786-0 renal was over 100 µM throughout. Moreover, the TGI with SN12C renal, in the experiment on HL-60(TB) leukemia, with HCC-2998 colon and in the experiment with NCI-H460 lung was over 100 µM throughout.

`O=C1/C(=C/c2ccc(O)cc2)Oc2ccccc21`: the TGI in the experiment on SF-295 CNS, in the experiment with K-562 leukemia, with OVCAR-3 ovarian, in the experiment with NCI-H23 lung, in the experiment with SF-539 CNS and in the experiment on 786-0 renal was over 100 µM throughout. Further, the TGI with SN12C renal was over 100 µM; in the experiment on HL-60(TB) leukemia, 92.9 µM; with HCC-2998 colon it was over 100 µM; with NCI-H460 lung, over 100 µM.

Regarding `CCCCOP1(=O)CC(C)=C(Cl)C(C)(OC)C1` (stereo not given), the TGI in the experiment on SF-295 CNS, in the experiment with K-562 leukemia, in the experiment with OVCAR-3 ovarian, with NCI-H23 lung, in the experiment on SF-539 CNS and in the experiment on 786-0 renal was over 100 µM throughout. Further, the TGI in the experiment on SN12C renal is over 100 µM; with HL-60(TB) leukemia, 69 µM; in the experiment on HCC-2998 colon it was over 100 µM; with NCI-H460 lung, over 100 µM.

In the case of `COc1ccc2c(c1)C=CC1C2CC[C@]2(C)C(NC(=O)/C=C/c3ccc(O)c(O)c3)CCC12` (stereo not given in full), the GI50 with SF-295 CNS is 31.7 µM; with K-562 leukemia, 13.9 µM; with OVCAR-3 ovarian, 7.19 µM; with NCI-H23 lung it was 16.3 µM; in the experiment with SF-539 CNS, 18.6 µM; in the experiment with 786-0 renal, 2.9 µM. The GI50 is 13.6 µM in the experiment with SN12C renal, 5.01 µM with HL-60(TB) leukemia, 14.4 µM with HCC-2998 colon and 3.93 µM in the experiment with NCI-H460 lung. Further, the TGI in the experiment with SF-295 CNS is 70.3 µM; with K-562 leukemia, 49.6 µM; in the experiment on OVCAR-3 ovarian it was 27.8 µM; in the experiment with NCI-H23 lung, 38.3 µM; in the experiment on SF-539 CNS it was 43.5 µM; in the experiment on 786-0 renal it was 15.7 µM. Further, the TGI came out at 32.2 µM in the experiment on SN12C renal, 23.8 µM in the experiment with HL-60(TB) leukemia, 34.6 µM with HCC-2998 colon and 14.4 µM in the experiment with NCI-H460 lung.

Regarding `COc1cc2c(=O)n(CC3CCCCC3)c3c4cc[nH]c4ncc3c2cc1OC`, the GI50 in the experiment on SF-295 CNS is 2.18 µM; in the experiment with K-562 leukemia, 0.187 µM; with OVCAR-3 ovarian, 6.66 µM; with NCI-H23 lung it was 6.66 µM; in the experiment with SF-539 CNS it was 0.681 µM; with 786-0 renal, 1.31 µM. The GI50 was 1.46 µM in the experiment with SN12C renal, 12.8 µM in the experiment with HL-60(TB) leukemia, 18.7 µM with HCC-2998 colon and 2.25 µM with NCI-H460 lung. Also, the TGI in the experiment on SF-295 CNS is 10.7 µM; with K-562 leukemia it was 15.8 µM; with OVCAR-3 ovarian, 18 µM; in the experiment with NCI-H23 lung it was over 50 µM; with SF-539 CNS, 3.08 µM; with 786-0 renal it was 9.25 µM. Moreover, the TGI with SN12C renal was 11.6 µM; with HL-60(TB) leukemia, over 50 µM; in the experiment on HCC-2998 colon, over 50 µM; with NCI-H460 lung, 9.41 µM.

For the compound `COC(=O)C(/C(=N\O)C(=O)Nc1ccc(Br)cc1)c1nc2ccccc2[nH]c1=O` (stereo not given), the TGI is over 100 µM with SF-295 CNS; 67 µM with K-562 leukemia; 50 µM with OVCAR-3 ovarian; over 100 µM in the experiment on NCI-H23 lung; 58.4 µM in the experiment on SF-539 CNS; 90.8 µM with 786-0 renal. The TGI is over 100 µM in the experiment with SN12C renal, 55.3 µM in the experiment on HL-60(TB) leukemia, over 100 µM in the experiment on HCC-2998 colon and over 100 µM in the experiment on NCI-H460 lung.

Regarding `C[C@H]1CCC2C(OC(=O)[C@@H]2CN(C)C)[C@]2(C)C(=O)C=CC12O` (stereo not given in full), the TGI in the experiment on SF-295 CNS is 31.1 µM; in the experiment with K-562 leukemia, over 55 µM; in the experiment with OVCAR-3 ovarian it was 15 µM; in the experiment on NCI-H23 lung it was 13.6 µM; in the experiment with SF-539 CNS it was 12 µM; in the experiment on 786-0 renal it was 11.2 µM. In addition, the TGI with SN12C renal turned out to be 14.6 µM; in the experiment with HL-60(TB) leukemia, 7.18 µM; in the experiment on HCC-2998 colon, 18.2 µM; in the experiment on NCI-H460 lung, 28.7 µM.

As to `C=CCO[C@H]1CC[C@@]2(C)C(CC[C@]3(C)C2CC=C2[C@@H]4[C@@H](C)C(C)CC[C@]4(C(=O)O)CCC23C)C1(C)C` (stereo not given in full), the TGI in the experiment with SF-295 CNS was found to be 27.5 µM; in the experiment on K-562 leukemia, 28.6 µM; in the experiment on OVCAR-3 ovarian it was 29.8 µM; in the experiment with NCI-H23 lung, 28.9 µM; with SF-539 CNS, 34.1 µM; in the experiment with 786-0 renal it was 30.6 µM. Also, the TGI with SN12C renal was 27.1 µM; in the experiment with HL-60(TB) leukemia it was 22 µM; with HCC-2998 colon, 32.4 µM; in the experiment with NCI-H460 lung it was 36.3 µM.

As for `CNC(=O)c1cc(-c2ccc(F)cc2)cc(-c2ccc(S(=O)(=O)N3CCCC3)cc2)c1N`, the GI50 was 10.6 µM in the experiment on SF-295 CNS; 20.4 µM with K-562 leukemia; 18.2 µM in the experiment with OVCAR-3 ovarian; over 25 µM in the experiment with NCI-H23 lung; over 25 µM in the experiment with SF-539 CNS; 24.4 µM in the experiment on 786-0 renal. The GI50 is over 23.8 µM with SN12C renal, 7.41 µM with HL-60(TB) leukemia, over 25 µM in the experiment with HCC-2998 colon and 15.1 µM with NCI-H460 lung. In addition, the TGI in the experiment on SF-295 CNS, in the experiment on K-562 leukemia, in the experiment with OVCAR-3 ovarian, with NCI-H23 lung, with SF-539 CNS and in the experiment with 786-0 renal was over 25 µM throughout. Also, the TGI in the experiment on SN12C renal, with HL-60(TB) leukemia, with HCC-2998 colon and with NCI-H460 lung was over 25 µM in each case.

With `Cn1cc(-c2csc(-c3cn(C(=O)OC(C)(C)C)c4ccccc34)n2)c2cccnc21`, the GI50 with SF-295 CNS was 3.42 µM; with K-562 leukemia, 2.02 µM; with OVCAR-3 ovarian it was 2.26 µM; in the experiment on NCI-H23 lung, 11.2 µM; with SF-539 CNS, 3.51 µM; with 786-0 renal it was 4.92 µM. Moreover, the GI50 was 6.45 µM with SN12C renal, 2.61 µM in the experiment with HL-60(TB) leukemia, 10.2 µM in the experiment on HCC-2998 colon and 3.92 µM in the experiment on NCI-H460 lung. Further, the TGI in the experiment with SF-295 CNS is 14.5 µM; with K-562 leukemia, over 100 µM; with OVCAR-3 ovarian it was 5.61 µM; in the experiment with NCI-H23 lung, 30.9 µM; in the experiment on SF-539 CNS, 17.4 µM; in the experiment with 786-0 renal, 16.4 µM. For the same compound, the TGI in the experiment with SN12C renal was found to be 21.6 µM; with HL-60(TB) leukemia, 21.9 µM; in the experiment on HCC-2998 colon, 25.3 µM; with NCI-H460 lung, 17.7 µM.

With `COC(=O)C#CC(N)=O`, the TGI was over 100 µM in the experiment on SF-295 CNS; 60.1 µM in the experiment with K-562 leukemia; over 100 µM with OVCAR-3 ovarian; over 100 µM in the experiment with NCI-H23 lung; over 100 µM with SF-539 CNS; over 100 µM in the experiment on 786-0 renal. Further, the TGI was over 100 µM in the experiment on SN12C renal, 19.8 µM with HL-60(TB) leukemia, over 100 µM in the experiment with HCC-2998 colon and over 100 µM with NCI-H460 lung.
